Experimental data published in patent publication US8669243B2, “Steroid-derived cyclopamine analogs and methods for using the same in the prevention or treatment of cancer” (The Wistar Institute, priority 2007, dated 2014).
“Also recorded” adds a separate entry of the source.

Assays:
Assay type in all cases: cell-based
[1] = system: SHH-induced GLI-luciferase activity in SHH-Light2 cells; test: SHH-Light2 GLI-dependent firefly luciferase reporter assay
Experimental: Shh-Light2 cells were seeded at 70% confluency in 24 wells, 24 hours prior to treatment. They were then cultured for an additional 48 hours in standard serum-containing media prior to analysis. GLI-binding site luciferase activities were measured using the luciferase reporter assay system with the luciferase kit (PROMEGA).
SHH-light2 cells were treated with SHH (600 ng/ml, R&D) alone or in combination with cyclopamine (CYC), analog 33 or analog 37. CYC, analog 33 and analog 37 were used at […].
One screen involved examining the activation of the SHH pathway using the well-established cell line, SHH-Light2 cells. This cell line is a 3T3 clone that stably expresses a GLI-dependant firefly luciferase (Taipale, et al. (2000) Nature 406:1005-1009). […] Concentrations of each analog, ranging from 20 μM to 2.5 μM, were tested. SHH-Light2 cells were seeded 24 hours prior to treatment. They were then cultured for an additional 48 hours in standard serum-containing media prior to analysis. GLI-binding site luciferase activities were measured using a commercially available luciferase reporter assay system.
The activity of analogs 33 and 37 on the SHH signaling pathway was analyzed using the SHH-Light2 cells described herein.

[2] = system: granule neuron precursors (GNPs) purified from postnatal mouse cerebella; test: SHH-induced granule neuron precursor (GNP) proliferation, BrdU incorporation; parameters: inhibition of SHH-induced GNP proliferation (percentage BrdU positive): dose or concentration left out as unconfirmed; settings: for inhibition of SHH-induced GNP proliferation (BrdU-positive cells): 10 μM, SHH 600 ng/ml, FIG. 2; for inhibition of SHH-induced GNP proliferation (percentage BrdU positive): BrdU 6 hours before fixation, FIG. 5
Experimental: Purified GNPs were either not treated (CTR, n=4) or treated with SHH (600 ng/ml (n=4), alone or in combination with cyclopamine (10 μM, n=4), tomatidine (10 μM, n=4), analog 18 (10 μM, n=4) or estrone 15 (10 μM, n=2). BrdU-positive cells were counted with a fluorescent microscope using a 20× objective, wherein at least ten independent fields for each culture condition were counted per culture condition.
It has previously been shown that SHH is a potent mitogen for granule neuron precursors (GNPs) purified from postnatal mouse cerebella (Dahmane & Ruiz I Altaba (1999) Development 126:3089-3200). This well-established system was used to test the instant steroid-derived cyclopamine analogs for their activity in inhibiting this proliferative response of GNPs to SHH. […] GNPs were purified from postnatal day 5 (P5) mouse cerebella, plated on poly-D-lysine in serum-free DMEM-F12 and treated with either SHH alone or SHH plus the analogs. Treatment with SHH and cyclopamine was used as a control for inhibition.
GNPs were purified from postnatal day 5 (P5) mouse cerebella and treated with either SHH alone, or SHH in combination with cyclopamine, analog 33, or analog 37, each used at […]. BrdU was added to the media 6 hours before fixation. Percentage of brdU positive was determined following counting with a fluorescence microscope using a 20× objective (AXIOSKOP, ZEISS). At least five independent fields for each culture condition were counted. The analysis was performed on three independent experiments. Statistical analysis was performed with the Student t test.

[3] = system: human medulloblastoma DAOY cells; test: DAOY cell survival, colorimetric MTT assay; settings: 72 hours treatment; FIG. 6
Experimental: DAOY cells were treated for 72 hours with either cyclopamine (CYC), analog 33 or analog 37 before cell survival was assayed with a colorimetric MTT assay. Absorbance at 570 nm is directly proportional to the number of living cells.
Abnormal activation of the SHH signaling pathway has been linked to various cancers including medulloblastoma, a malignancy of the cerebellum with the highest incidence of all human pediatric malignant brain tumors. A subset of these tumors is thought to arise from deregulation of GNP development in the cerebellum and require SHH signaling for their growth. It was therefore tested whether analogs 33 and 37 were also efficient in reducing the viability of medulloblastoma cells using human medulloblastoma DAOY cells.

SMILES	inhibition of SHH-induced activation of GLI-dependant firefly luciferase ([1]; 2.5 μM, recombinant SHH (200 ng), FIG. 1C)	inhibition of SHH-induced activation of GLI-dependant firefly luciferase ([1]; 5 μM, recombinant SHH (200 ng), FIG. 1B)	inhibition of SHH-induced activation of GLI-dependant firefly luciferase ([1]; 10 μM, recombinant SHH (200 ng), FIG. 1A)	inhibition of SHH-induced GNP proliferation (BrdU-positive cells) [2]	inhibition of SHH signaling activity (GLI-luciferase) ([1]; SHH 600 ng/ml, FIG. 4)	inhibition of SHH-induced GNP proliferation (percentage BrdU positive) [2]	cell survival / viability of DAOY cells (absorbance at 570 nm) [3]	inhibition of SHH-induced reporter activity ([1]; 5 μM, recombinant SHH (200 ng), 48 hours, FIGS. 3 and 4)
C[C@]12CC[C@@H]3c4ccc(O)cc4CC[C@H]3[C@@H]1CC[C@@]21Cc2ncccc2O1 [compound 18]	inhibited SHH activity comparable to cyclopamine	inhibited SHH activity comparable to cyclopamine	effectively inhibited SHH activity	as potent as cyclopamine				
C[C@]12CC[C@@H]3c4ccc(O)cc4CC[C@H]3[C@@H]1CC[C@@]21C[C@@H]([C@H]2CCCN2)O1 [compound 37]					strong inhibition of SHH signaling activity comparable to that of cyclopamine	as potent as cyclopamine; also recorded: blocked	significant decrease of cell survival; also recorded: active in reducing DAOY cells viability	
CC1=C2C[C@H]3[C@@H](CC=C4C[C@@H](O)CC[C@@]43C)[C@@H]2CC[C@]12O[C@@H]1C[C@H](C)CN[C@H]1[C@H]2C [cyclopamine]				significantly decreased cell proliferation		blocked	significant decrease of cell survival	largely blocked
C[C@H]1CC[C@]2(NC1)O[C@H]1C[C@H]3[C@@H]4CC[C@H]5C[C@@H](O)CC[C@]5(C)[C@H]4CC[C@]3(C)[C@H]1[C@@H]2C [tomatidine, reference compound]				had no effect				
